Source: article PMC8845285, “Serotoninergic receptor ligands improve Tamoxifen effectiveness on breast cancer cells” (BMC Cancer, 2022)

Legend:
Format in all cases: cell-based, human
[1] = system: ABCC1, ABCG1 and ABCG2; assay: ABC transporter mRNA levels in MCF7-R cells, qPCR; conditions: Tamoxifen 5 μM, E2 100 nM, 72 h
Description: Total RNA was isolated from cells, quantified (NanoDrop spectrophotometer, Life Technologies, Carlsbad, CA, USA) and reverse transcribed according to the manufacturer’s instructions. Semiquantitative PCR and qPCR assays were performed according to manufacturer’s instructions for Bio-Rad T100 thermal cycler and CFX Connect Real Time system (Biorad, Hercules, CA, USA), respectively. Relative gene expression quantification was measured by 2^−ΔΔCt method normalizing for the reference sample using Rps23 (Ribosomal Protein S23) as housekeeping gene.
Cell viability was measured
(§1) (1 picture or pasted object on this page, not shown here)

[2] = system: MCF7-R cells; assay: Tamoxifen-resistant MCF7-R cell viability, sulforhodamine B assay; conditions: up to 6 μM, E2 100 nM, 72 h
Description: (§2) Cells were fixed with 50% trichloroacetic acid for at least 2 h at 4 °C, washed with distilled and de-ionized water, air-dryed and stained 30 min with 0.4% sulforhodamine B in 1% acetic acid. Unbound dye was removed and 10 mM tris-HCl solution (pH 7.5) was added to dissolve the protein-bound dye. Cell survival was assessed by optical density determination at 510 nm using a microplate reader.
MCF7 cells were cultured for 4 months in phenol-red free medium supplemented with 10% (C/S) FBS and continuously exposed to Tamoxifen (1 μM). […] To further validate the degree of drug resistance, the expression levels of ABCC1, ABCG1 and ABCG2 – members of ABC transporter family known as involved in multi-drug resistance – were evaluated by Quantitative Real-Time PCR (qPCR; see below) upon cell treatment with 5 μM Tamoxifen for 72 h.
Fig. 9 Effect of SER79 and SER68 on Tamoxifen-resistant (MCF7-R) cells. a Estrogen starved MCF7-R were treated with SER79 (20 μM, 5 μM) or SER68 (20 μM) in presence of E2 (100 nM). b Estrogen-starved MCF7-R were treated with Tamoxifen (5 μM) in presence of E2 and SER79 (20 μM) or SER68 (20 μM). a,b As positive control, the cells were treated with E2 alone, in absence or in presence of SER (dotted line). After 72 h, cell viability was assessed by sulforhodamine B assay (see Methods). The results were reported as percentage of viable cells compared to positive control, considered as maximum viability (100%). c mRNA levels of CTGF were determined by qPCR (see Methods and Table 1) in MCF7-R cells upon treatment with SER68 (20 μM). Data were normalized on Ribosomal Protein S23 (Rps23) gene as internal standard and reported as CTGF mRNA levels in MCF7-R. a-c Graphs represent the mean ± SD of at least three independent triplicate experiments. * denotes statistically significant values compared with (b) positive control or (c) MCF7 cells (*adjp<0.05; **adjp<0.001). # denotes statistically significant values compared with untreated MCF7-R (#pval<0.05) […]
Figure S3. Establishment of MCF7 Tamoxifen re sista n t(M C F7-R) cells. MCF7 cells were cultured with Tamoxifen (1µM), in absence of E2, for 4 months (M C F7-R). (a-b) MCF7 and MCF7-R cells were treated with in c re a s in gconcentration of Tamoxifen […]
As positive control, cells were treated with E2 alone. Cell viability was measured by sulforhodamine B assay (se e Methods). The re su ltswere re p o rte das percentage of viable cells compared to untreated cells, considered as maximum viability (100%). […]
(a ) * denotes statistically significant values compared with untreated cells […]
as §1

[3] = system: Tamoxifen-cultured MCF7 cells; assay: Tamoxifen-cultured MCF7 cell viability, sulforhodamine B assay; conditions: Tamoxifen 5 μM, E2 100 nM, 72 h
Description: as §2
To further investigate the effect of SER79 and SER68 on Tamoxifen responsiveness and CTGF expression in MCF7 cells, we obtained - by a continuous treatment of 10 days with 1 μM Tamoxifen – a cellular model less sensitive to the drug (Tamoxifen-cultured MCF7). We observed that 20 μM SER79, 20 μM and 40 μM SER68, while not 5 μM SER79, reduced viability of Tamoxifen-cultured MCF7 cells by about 40% (adjp<0.01; Fig. 8a). […] However, in the presence of 20 μM SER79, 20 μM and 40 μM SER68, Tamoxifen elicited a further 40% reduction of viability, similar to that achieved in Tamoxifen-responsive MCF7 cells (adjp<0.01; Fig. 8b).
Fig. 8 Effect of SER79 and SER68 on Tamoxifen-cultured MCF7 cells. MCF7 cells were cultured in presence of Tamoxifen (1 μM) for 10 days. Estrogen-starved MCF7 and Tamoxifen-cultured MCF7 cells (48 h) were (a-c) treated with SER79 (20 μM, 5 μM) or SER68 (40 μ, 20 μM), (b) treated with Tamoxifen (5 μM) in presence of SER79 (20 μM, 5 μM) or SER68 (40 μM, 20 μM). All treatments were carried out in presence of E2 (100 nM) for 72 h. As positive control, the cells were treated with (a-c) E2 alone or (b) E2 in absence or in presence of SER (as indicated, dotted line). a,b Cell viability was assessed by sulforhodamine B assay (see Methods). The results were reported as percentage of viable cells compared to positive control, considered as maximum viability (100%). c mRNA levels of CTGF were determined by qPCR (see Methods and Table 1). Data were normalized on Ribosomal Protein S23 (Rps23) gene as internal standard and reported as CTGF mRNA levels in Tamoxifen-cultured MCF7 relative to those in MCF7 cells (dotted line). a-c Graphs represent the mean ± SD of at least three independent triplicate experiments. * denotes statistically significant values compared with (a,b) positive control (*adjp<0.05, ** adjp<0.01) or (c) MCF7 cells (*pval<0.05); # denotes statistically significant values compared with (b) cells treated with Tamoxifen in absence of SER or (c) untreated Tamoxifen-cultured MCF7 cells (#pval<0.01, ##pval<0.0001)

`CC/C(=C(\c1ccccc1)c1ccc(OCCN(C)C)cc1)c1ccccc1` [Tamoxifen] was tested, and the “mRNA levels of ABCC1, ABCG1 and ABCG2 in Tamoxifen-treated MCF7-R cells” value [1] was “higher”, the “effect of Tamoxifen on MCF7-R cell viability” value [2] was “did not reduce” and the “effect of Tamoxifen treatment alone on viability of Tamoxifen-cultured MCF7 cells” value [3] was “did not affect viability”.
